# Measurements from US5051132A, “Lyophilized preparation of 6-(3-dimethylaminopropionyl)forskolin” (priority 1989, dated 1991).
# Assay: Stability and solubility of 6-(3-dimethylaminopropionyl)forskolin in aqueous solution
# Assay type: physicochemical
smiles,measurement,setting,value
C=CC1(C)CC(=O)C2(O)C(C)(O1)C(OC(C)=O)C(OC(=O)CCN(C)C)C1C(C)(C)CCC(O)C12C (centres unmarked) [6-(3-dimethylaminopropionyl)forskolin],stability in the state of aqueous solution,aqueous solution,unstable in the state of aqueous solution
same,stability and solubility in the pH range of about 3 to about 6,pH about 3 to about 6,keeps stable and exhibits a good solubility
